Assay results taken from patent US9102637B2, “Bicyclic thiazole compounds” (CARNA BIOSCIENCES INC., priority 2013, dated 2015).
pIC50: −log10 of the molar value.

target: human TNIK (N-terminal segment, TNIK_N, residues 1-314) (Homo sapiens (Human), UniProt Q9UKE5); test: TNIK kinase assay (mobility shift); type: biochemical; conditions: TNIK_N kinase activity, 25 μM ATP, 1 h at room temperature
Excerpt: Preparation of Recombinant Human TNIK (N-Terminal Segment):
A cDNA encoding the N-terminal segment (TNIK_N, residues 1-314) containing the kinase domain of human TNIK (NM_015028.1) was amplified from cDNA mixture synthesized from human tissue (Biochain) by PCR using the following primers.
The cDNA was subcloned into baculovirus transfer vector pFastBac_GSTb that includes protease cleavage site and glutathione S-transferase purification tag (GST-tag). The plasmid was purified and the insertion of the pFastBac_GSTb-TNIK_N was confirmed by DNA sequencing. Then E. coli DH10Bac competent cells were transformed with the plasmid to prepare the recombinant bacmid according to the instructions for the Bac-to-Bac™ baculovirus expression systems (Invitrogen). The Sf9 cells were transfected with the recombinant bacmid containing pFastBac_GSTb-TNIK_N using Cellfectin Reagent (Invitrogen) in SF-9001I serum free media (Invitrogen). The viral supernatant was collected from the medium 72 h after transfection. The virus was amplified three times by infecting actively growing Sf9 or Sf21 cells in Grace's insect media (Invitrogen) supplemented with 10% FCS and an antibiotic-antimycotic reagent (Invitrogen) for 72 h at 27° C. in T-flask or roller bottles. The titer of amplified TNIK_N virus was estimated at 2.36×10^8 pfu/ml by using BacPAK™ Baculovirus Rapid Titer kit (Clontech).
Log-phase Sf21 cells (2×10^6 cells/ml) in the Grace's insect media were infected with the recombinant baculovirus at MOI of 3.0 and incubated in roller bottles (250 ml media per bottle) for 72 h at 27° C., after which, the cells were collected by centrifugation, and the cell pellet washed with cold PBS and kept at −80° C. until purification. The following purification procedures were carried out at 4° C. The frozen cells were thawed on ice and lysed in lysis buffer (50 mM Tris-HCl, pH 7.5, 150 mM NaCl, 1% Nonidet P-40, 5 mM DTT, 0.5 mM EDTA, 0.5 mM EGTA) supplemented with 1 mM phenylmethansulfonylfluoride, 2 μg/ml leupeptin, 2 μg/ml aprotinin, 1 mM NaF, 100 μM sodium orthovanadate, and 1 μM cantharidin by sonication. The suspended lysate was cleared by centrifugation at 9000g for 20 min and the supernatant was incubated for 1 h with glutathione Sepharose beads (GE Healthcare). The beads were suspended in buffer-H (50 mM Tris-HCl, pH 7.5, 1 M NaCl, 1 mM DTT, 0.5 mM EDTA, 0.5 mM EGTA and 0.05% Brij35) and washed with buffer-H followed by buffer-L (50 mM Tris-HCl, pH 7.5, 150 mM NaCl, 1 mM DTT, 0.5 mM EDTA, 0.5 mM EGTA, 0.05% Brij35) in an Econo-pack column (BIO-RAD). The bound TNIK_N was eluted with elution buffer (50 mM Tris-HCl, pH 8.0, 150 mM NaCl, 1 mM DTT, 10% glycerol, 0.5 mM EDTA, 0.5 mM EGTA and 5 mM reduced glutathione). The eluted fractions were collected and determined the protein concentration by Bradford reagent (BIO-RAD). The TNIKN fractions were pooled and desalted using 10DG column (BIORAD) equilibrated with the storage buffer (50 mM Tris-HCl, pH 7.5, 150 mM NaCl, 1 mM DTT, 10% glycerol, 0.05% Brij35). The purified TNIKN was characterized by electrophoresis using 4-20% polyacrylamide gels and matrix-assisted laser desorption/ionization reflection time-of-flight (MALDI-TOF) mass spectrometry on a Voyager-DE RP MALDI/TOF (Applied Biosystems). TNIK_N was confirmed by the molecular weight and. MASCOT Peptide Mass Fingerprint.
The kinase assays were conducted in a 20 μl volume using 384-well plates (Greiner). The reaction mixture consists of compound or vehicle (1% DMSO), 0.08 ng/μl TNIK_N, 1 μM FITC-labeled substrate peptides, including E-aminocaproic acid and 7 amino acids (described as SEQ ID NO.3 in “Kinase assay of TEST EXAMPLE 1” of WO 2010/064111(P.31)), 20 mM Hepes, pH 7.5, 0.01% Triton X-100, 5 mM MgCl2, 25 μM ATP and 2 mM DTT. As blank, TNIK N was excluded from the reaction mixture of vehicle (1% DMSO). […]

Sequence of human TNIK (N-terminal segment, TNIK_N, residues 1-314) (Q9UKE5 1-314): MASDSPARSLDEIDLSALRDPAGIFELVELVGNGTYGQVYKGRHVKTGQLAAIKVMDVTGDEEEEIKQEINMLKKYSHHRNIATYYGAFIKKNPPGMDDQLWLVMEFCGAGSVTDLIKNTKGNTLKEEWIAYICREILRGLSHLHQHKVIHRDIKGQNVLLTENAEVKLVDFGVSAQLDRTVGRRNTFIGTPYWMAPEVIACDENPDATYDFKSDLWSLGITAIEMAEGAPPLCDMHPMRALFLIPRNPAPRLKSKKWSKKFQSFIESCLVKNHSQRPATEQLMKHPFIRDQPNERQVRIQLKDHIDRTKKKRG

Row | SMILES | pIC50
1 | Cc1nnnn1Cc1ccc(C(=O)Nc2sc(Nc3ccc4ccccc4c3)nc2C(N)=O)cc1 [Example 244, 5-{4-[(5-methyl-1H-tetrazol-1-yl)methyl]benz-amido}-2-(naphthalen-2-ylamino)thiazole-4-carbox-amide] | 8.15
2 | C[C@@H](O)CNc1ccc(C(=O)Nc2sc(Nc3ccc4ccccc4c3)nc2C(N)=O)cc1 [Example 147, (R)-5-{4-[(2-hydroxypropyl)amino]benzamido}-2-(naphthalen-2-ylamino)thiazole-4-carboxamide] | 7.77
3 | NC(=O)c1nc(Nc2ccc3ccccc3c2)sc1NC(=O)C#CCCCn1cncn1 [Example 233, 5-[6-(1H-1,2,4-triazol-1-yl)hex-2-ynamido]-2-(naphthalen-2-ylamino)thiazole-4-carboxamide] | 7.97
4 | COc1ccc2cc(Nc3nc(C(N)=O)c(NC(=O)c4ccc(N)cc4)s3)ccc2c1 [Example 136, 5-(4-aminobenzamido)-2-[(6-methoxynaphthalen-2-yl)amino]thiazole-4-carboxamide] | 8.01
5 | CC(=O)Nc1ccc(C(=O)Nc2sc(Nc3cccc4ccccc34)nc2C(N)=O)cc1 [Example 1, 5-(4-acetamidobenzamido)-2-(naphthalen-1-ylamino)thiazole-4-carboxamide] | 7.61
6 | NC(=O)c1nc(Nc2ccc3ccccc3c2)sc1NC(=O)c1ccc(CN2C(=O)CSC2=O)cc1 [Example 252, 5-{4-[(2,4-dioxothiazolidin-3-yl)methyl]benzamido}-2-(naphthalen-2-ylamino)thiazole-4-carbox-amide] | 7.80
7 | NC(=O)c1nc(Nc2ccc3ccccc3c2)sc1NC(=O)c1ccc(Cn2cccn2)cc1 [Example 232, 5-{4-[(1H-pyrazol-1-yl)methyl]benzamido}-2-(naphthalen-2-ylamino)thiazole-4-carboxamide] | 7.99
8 | NC(=O)c1nc(Nc2ccc3ccc(F)cc3c2)sc1NC(=O)c1ccc(Cn2ccnc2)cc1 [Example 262, 5-{4-[(1H-imidazol-1-yl)methyl]benzamido}-2-[(7-fluoronaphthalen-2-yl)amino]thiazole-4-carbox-amide] | 8.08
9 | Cc1noc(Cc2ccc(C(=O)Nc3sc(Nc4ccc5ccccc5c4)nc3C(N)=O)cc2)n1 [Example 256, 5-{4-[(3-methyl-1,2,4-oxadiazol-5-yl)methyl]benzamido}-2-(naphthalen-2-ylamino)thiazole-4-carboxamide] | 7.73
10 | NC(=O)c1nc(Nc2cccc3ncccc23)sc1NC(=O)c1ccsc1 [Example 40, 2-(quinolin-5-ylamino)-5-(thiophene-3-carbox-amido)thiazole-4-carboxamide] | 8.03
11 | NC(=O)c1nc(Nc2ccc3ccc(F)cc3c2)sc1NC(=O)c1ccsc1 [Example 80, 2-[(7-fluoronaphthalen-2-yl)amino]-5-(thiophene-3-carboxamido)thiazole-4-carboxamide] | 7.77
12 | NC(=O)c1nc(Nc2ccc3ccccc3c2)sc1NC(=O)c1csc(Cn2ccnc2)c1 [Example 258, 5-{5-[(1H-imidazol-1-yl)methyl]thiophene-3-carboxamido}-2-(naphthalen-2-ylamino)thiazole-4-carboxamide] | 8.06
13 | NC(=O)c1nc(Nc2ccc3ccccc3c2)sc1NC(=O)C1CC1 [Example 93, 5-(cyclopropanecarboxamido)-2-(naphthalen-2-yl-amino)thiazole-4-carboxamide] | 7.82
14 | NC(=O)c1nc(Nc2ccc3ccc(F)cc3c2)sc1NC(=O)C1CC1 [Example 122, 5-(cyclopropanecarboxamido)-2-[(7-fluoro-naphthalen-2-yl)amino]thiazole-4-carboxamide] | 7.89
15 | NC(=O)c1nc(Nc2ccc3ccccc3c2)sc1NC(=O)c1ccc(Cn2cnc([N+](=O)[O-])n2)cc1 [Example 243, 2-(naphthalen-2-ylamino)-5-{4-[(3-nitro-1H-1,2,4-triazol-1-yl)methyl]benzamido}thiazole-4-carbox-amide] | 7.83

Now those with a higher pIC50, led by results:

Row | pIC50 | SMILES
16 | 8.17 | NC(=O)c1nc(Nc2ccc3ccccc3c2)sc1NC(=O)c1ccc(CN2CCCCC2CO)cc1 (stereo not drawn) [Example 189, 5-(4-{[2-(hydroxymethyl)piperidin-1-yl]methyl}benzamido)-2-(naphthalen-2-ylamino)thiazole-4-carboxamide]
17 | 8.21 | Cc1nnc(Cc2ccc(C(=O)Nc3sc(Nc4ccc5ccccc5c4)nc3C(N)=O)cc2)o1 [Example 257, 5-{4-[(5-methyl-1,3,4-oxadiazol-2-yl)methyl]benzamido}-2-(naphthalen-2-ylamino)thiazole-4-carboxamide]
18 | 8.21 | COc1ccc2cc(Nc3nc(C(N)=O)c(NC(=O)c4ccc(Cn5ccnc5)cc4)s3)ccc2c1 [Example 248, 5-{4-[(1H-imidazol-1-yl)methyl]benzamido}-2-[(6-methoxynaphthalen-2-yl)amino]thiazole-4-carboxamide]
19 | 8.22 | C#CC(=O)Nc1sc(Nc2ccc3ccccc3c2)nc1C(N)=O [Example 204, 2-(naphthalen-2-ylamino)-5-propiolamidothiazole-4-carboxamide]
20 | 8.25 | NC(=O)c1nc(Nc2ccc3ccccc3c2)sc1NC(=O)c1ccc(CN2CC(O)C2)cc1 [Example 201, 5-{4-[(3-hydroxyazetidin-1-yl)methyl]benzamido}-2-(naphthalen-2-ylamino)thiazole-4-carbox-amide]
21 | 8.26 | NC(=O)c1nc(Nc2ccc3ccccc3c2)sc1NC(=O)c1ccc(CN2CC[C@@H](O)C2)cc1 [Example 202, (R)-5-{4-[(3-hydroxypyrrolidin-1-yl)methyl]benzamido}-2-(naphthalen-2-ylamino)thiazole-4-carboxamide]
22 | 8.28 | NC(=O)c1nc(Nc2ccc3ccccc3c2)sc1NC(=O)c1ccc(Cn2cc(CO)nn2)cc1 [Example 260, 5-{4-[(4-(hydroxymethyl)-1H-1,2,3-triazol-1-yl)methyl]benzamido}-2-(naphthalen-2-ylamino) thiazole-4-carboxamide]
23 | 8.30 | NC(=O)c1nc(Nc2ccc3ccccc3c2)sc1NC(=O)c1ccc(CN2CC[C@H](O)C2)cc1 [Example 203, (S)-5-{4-[(3-hydroxypyrrolidin-1-yl)methyl]benzamido}-2-(naphthalen-2-ylamino)thiazole-4-carboxamide]
24 | 8.46 | NC(=O)c1nc(Nc2ccc3ccccc3c2)sc1NC(=O)c1ccc(Cn2cnc(CO)c2)cc1 [Example 246, 5-{4-[(4-(hydroxymethyl)-1H-imidazol-1-yl)methyl]benzamido}-2-(naphthalen-2-ylamino)thiazole-4-carboxamide]
25 | 8.47 | NC(=O)c1nc(Nc2ccc3ccccc3c2)sc1NC(=O)c1ccc(CN2CCC(O)CC2)cc1 [Example 173, 5-{4-[(4-hydroxypiperidin-1-yl)methyl]benzamido}-2-(naphthalen-2-ylamino)thiazole-4-carbox-amide]
26 | 8.57 | NC(=O)c1nc(Nc2ccc3ccccc3c2)sc1NC(=O)c1ccc(CN2CCN(CCO)CC2)cc1 [Example 185, 5-(4-{[4-(2-hydroxyethyl)piperazin-1-yl]methyl}benzamido)-2-(naphthalen-2-ylamino)thiazole-4-carboxamide]
27 | 8.80 | CC(C)=CC(=O)Nc1sc(Nc2ccc3cc(CO)ccc3c2)nc1C(N)=O [Example 139, 2-{[6-(hydroxymethyl)naphthalen-2-yl]amino}-5-(3-methylbut-2-enamido)thiazole-4-carboxamide]
